In PubChem BioAssay (NCI):
Several values for one entry are separate records, joined by “and”; a condition that tells them apart may be missing. Equal values may be shown once.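 Step 1: Grow cells in 96-well plates. Step 2: Expose to compound for 48 hours at 5 concentrations. Step 3: Interpolate endpoints linearly; if unreached, use highest concentration. The concentration for 50% growth inhibition is given as GI50. The concentration for full growth arrest is given as TGI.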

What was measured:
Assay in all cases: inhibition of tumour cell growth, NCI panel, 48 h
SK-OV-3 ovarian = test system: SK-OV-3 ovarian
MOLT-4 leukemia = test system: MOLT-4 leukemia
MCF7 breast = test system: MCF7 breast
DU-145 prostate = test system: DU-145 prostate
SK-MEL-28 melanoma = test system: SK-MEL-28 melanoma
TK-10 renal = test system: TK-10 renal
SN12C renal = test system: SN12C renal
OVCAR-3 ovarian = test system: OVCAR-3 ovarian
CAKI-1 renal = test system: CAKI-1 renal
SR leukemia = test system: SR leukemia

SMILES	TGI (SK-OV-3 ovarian)	TGI (MOLT-4 leukemia)	TGI (MCF7 breast) [µM]	TGI (DU-145 prostate) [µM]	TGI (SK-MEL-28 melanoma) [µM]	TGI (TK-10 renal)	TGI (SN12C renal) [µM]	TGI (OVCAR-3 ovarian)	TGI (CAKI-1 renal) [µM]	TGI (SR leukemia) [µM]	GI50 (SK-OV-3 ovarian) [µM]	GI50 (MOLT-4 leukemia) [µM]	GI50 (MCF7 breast) [µM]	GI50 (DU-145 prostate) [µM]	GI50 (SK-MEL-28 melanoma) [µM]	GI50 (TK-10 renal) [µM]	GI50 (SN12C renal) [µM]	GI50 (OVCAR-3 ovarian) [µM]	GI50 (CAKI-1 renal) [µM]	GI50 (SR leukemia)
N=C(N)SCC(=O)O	> 100 µM	> 100 µM	> 100	> 100	> 100	> 100 µM	> 100	> 100 µM	> 100	–	–	–	–	–	–	–	–	–	–	–
BrC(Br)([P+](c1ccccc1)(c1ccccc1)c1ccccc1)[P+](c1ccccc1)(c1ccccc1)c1ccccc1	> 100 µM	61.8 µM	–	–	50	> 100 µM	61.3	28.7 µM	39.5	56	–	–	–	–	–	–	–	–	–	–
COC(=O)C1=C(C(=O)OC)N(C(C)C)[C@H]2C(C(=O)OC)=C(C(=O)OC)N(C(C)C)[C@@H]12	> 100 µM	> 100 µM	–	–	> 100	> 100 µM	> 100	> 100 µM	> 100	> 100	–	–	–	–	–	–	–	–	–	–
O=c1ncccn1C1OC(CO)C(O)C1F (centres undefined)	> 100 µM	> 100 µM	–	–	> 100	> 100 µM	> 100	> 100 µM	> 100	> 100	–	–	–	–	–	–	–	–	–	–
COc1cc2c3c(c1OC)/C(=N/OS(=O)(=O)c1ccc(C)cc1)CC3N(S(=O)(=O)c1ccc(C)cc1)CC2 (centres undefined)	> 100 µM	–	–	–	> 100	> 100 µM	> 100	> 100 µM	> 100	–	–	–	–	–	–	–	–	–	–	–
C#CCn1cc(C=C2C(=O)NC(=S)NC2=O)c2cc(Cl)ccc21	14.7 µM	6.38 µM	3.46	3.22	5.56	5.95 µM	4.49	3 µM	4.06	–	2.87	2.44	1.67	1.72	2.33	2.36	2.05	1.64	1.84	–
Cc1ccc(-c2cc(C(Cl)Cl)on2)cc1	> 100 µM	> 100 µM	> 100	> 100	> 100	> 100 µM	> 100	> 100 µM	> 100	–	> 100	26.8	97.6	91.4	> 100	54.9	> 100	51.8	43.8	–
C1=CC=C2NCCSCCNC3=CC=CC=CC3=NCCSCCN=C2C=C1	> 100 µM	> 100 µM	–	–	> 100	> 100 µM	> 100	> 100 µM	> 100	–	–	–	–	–	–	–	–	–	–	–
CCOC(=O)c1cc(C(=O)O)c(=O)n2c1[nH]c1ccccc12	> 100 µM	> 100 µM	–	–	> 100	> 100 µM	> 100	> 100 µM	> 100	–	–	–	–	–	–	–	–	–	–	–
CCCC/C=C1\CCC(CN2CCCC2)C1=O (centres undefined)	97.1 µM	36.2 µM	–	–	29.1	6.3 µM	32	31.5 µM	–	24.5	–	–	–	–	–	–	–	–	–	–
Cc1ccc(N2C(=O)/C(=C3\Sc4c(nc(C)n(C)c4=O)N3c3ccccc3)SC2=S)cc1	> 100 µM	> 100 µM	–	–	> 100	> 100 µM	> 100	–	> 100	> 100	–	–	–	–	–	–	–	–	–	–
Cc1cc([C@H](C)Nc2nccc(N3C(=O)OC[C@@H]3[C@H](C)F)n2)ncc1-c1ccnc(C(F)(F)F)c1	–	> 100 µM	> 100	> 100	> 100	> 100 µM	> 100	> 100 µM	> 100	–	–	34.6	26.7	75.6	48.8	53	44.5	36.3	27.8	–
CCC1(Cl)C(=O)NC(=O)N(C2CC(O)C(CO)O2)C1N=[N+]=[N-] (centres undefined)	> 100 µM	> 100 µM	–	–	> 100	> 100 µM	> 100	> 100 µM	> 100	–	–	–	–	–	–	–	–	–	–	–
NCCNc1nc2ccccc2c2c(=O)c3cc(F)cc(Cl)c3sc12	–	3.69 µM	3.13	3.22	3.4	–	3.17	3.18 µM	2.8	–	–	1.82	1.52	1.73	1.87	–	1.65	1.72	1.41	–
COc1cc2c(c(OC)c1OC)-c1ccc(SC)c(=O)cc1[C@@H](NC(=O)c1ccc(F)cc1)CC2	0.072 µM and < 0.01 µM	> 100 µM	–	–	> 100	35.5 µM	46.8	0.0378 µM and < 0.01 µM	–	> 100	< 0.01	< 0.01	–	–	–	< 0.01	< 0.01	< 0.01	–	0.0167 µM and < 0.01 µM
C=C1c2ccccc2N(S(=O)(=O)c2ccc(C)cc2)C12CCCCC2	> 100 µM	> 100 µM	–	–	> 100	> 100 µM	> 100	> 100 µM	–	> 100	–	–	–	–	–	–	–	–	–	–
CC(C)(C)c1cc(C(=O)O)c(C(c2ccccc2)c2ccccc2C(=O)O)c(C(=O)O)c1 (centres undefined)	36.9 µM	> 100 µM	–	–	> 100	> 100 µM	49.1	> 100 µM	> 100	> 100	–	–	–	–	–	–	–	–	–	–
O=C1[C@H]2ON(c3ccccc3)C(c3cccc([N+](=O)[O-])c3)[C@H]2C(=O)N1c1ccc(Cc2ccc(N3C(=O)[C@@H]4ON(c5ccccc5)C(c5cccc([N+](=O)[O-])c5)[C@@H]4C3=O)cc2)cc1 (some centres undefined)	> 100 µM	> 100 µM	–	–	> 100	> 100 µM	> 100	> 100 µM	> 100	> 100	–	–	–	–	–	–	–	–	–	–
O=C1Cc2ccccc2CCc2ccccc21	> 100 µM	> 100 µM	–	–	> 100	> 100 µM	> 100	> 100 µM	> 100	> 100	–	–	–	–	–	–	–	–	–	–
O=C(NOC(=O)c1ccc([N+](=O)[O-])cc1)c1ccc(Cl)cc1	> 100 µM	> 100 µM	–	–	> 100	–	> 100	–	> 100	> 100	–	–	–	–	–	–	–	–	–	–
COC(=O)Cc1cc(=O)oc2c1C(=O)CCC2	> 100 µM	> 100 µM	–	–	> 100	> 100 µM	> 100	> 100 µM	> 100	–	–	–	–	–	–	–	–	–	–	–
COc1cc(-c2nn3c(=O)n(-c4ccc(Cl)cc4)c(=O)nc3s2)cc(OC)c1OC	> 100 µM	50 µM and > 100 µM	–	–	> 100	50 µM and 29.6 µM	> 100	> 100 µM	> 62.2	–	33.5	30.7	–	–	> 50	19.7	> 50	–	> 50	–
CC[C@H](C)[C@H](NC(=O)N[C@@H](C)c1ccccc1)C(=O)N(C)[C@H](C[C@@H](OC(C)=O)c1nc(C(=O)N[C@@H](Cc2ccccc2)C[C@H](C)C(=O)OC)cs1)C(C)C	> 100 µM	–	> 100	> 100	> 100	> 100 µM	> 100	42.2 µM	> 100	–	42.2	–	7.28	32.8	47	52	48.8	16.9	37.2	–
O=C1OC(c2ccc(Cl)c3ccccc23)c2ccccc21 (centres undefined)	> 100 µM	> 100 µM	–	–	> 100	–	> 100	–	> 100	> 100	–	–	–	–	–	–	–	–	–	–
Cc1ccc2c(C(C[N+](=O)[O-])c3ccco3)c(-c3ccccc3)[nH]c2c1 (centres undefined)	> 100 µM	> 100 µM	> 100	> 100	> 100	> 100 µM	> 100	> 100 µM	> 100	–	37.2	30.7	9.09	74.4	98.9	12.3	47.8	22.8	5.63	–
CN1CCN(CCCOc2ccc3ncnc(Nc4ccc(Oc5cccc(F)c5)c(Cl)c4)c3c2)CC1	–	4.35 µM	3.31	2.79	3.11	2.32 µM	2.74	3.74 µM	3.1	–	–	1.76	1.57	1.31	1.7	1.05	1.39	1.61	1.52	–
Nc1nc(Cl)cc(NCCCCCCNc2cc(Cl)nc(N)n2)n1	> 100 µM	> 100 µM	–	–	–	> 100 µM	> 100	> 100 µM	> 100	> 100	–	–	–	–	–	–	–	–	–	–
NCCn1c2c(c3ccccc3c1=O)C(=O)c1ccccc1-2	2.55 µM	0.095 µM	12.6	2.58	3.14	3.64 µM	2.13	2.53 µM	0.887	–	0.528	< 0.0378	0.292	–	1.46	0.778	0.266	0.681	0.129	–
c1cc2ccc1C1NCCCN1CCN1CCCNC1c1ccc(cc1)C1NCCCN1CCN1CCCNC21 (centres undefined)	> 100 µM	> 100 µM	–	–	> 100	> 100 µM	> 100	> 100 µM	> 100	–	–	–	–	–	–	–	–	–	–	–
O=C(O)C(CS)N=Cc1nc(-c2ccccc2)oc1O (centres undefined)	> 100 µM	> 100 µM	–	–	> 100	> 100 µM	> 100	> 100 µM	–	> 100	–	–	–	–	–	–	–	–	–	–
